Reference: US20090221523A1 (priority 2005, published 2009)
In brackets after ≈: the same amount, converted by molar mass. Several values for one entry are separate records, joined by “and”; a condition that tells them apart may be missing. Equal entries are not always repeated. Where two headings read alike, the source gives them in different places. Marks after values point to notes of the source that are not given here.

How the values were obtained:
[1] = system: vaccinia virus (Copenhagen Strain); assay: microbe, parasite or virus in culture; type: cell-based; details: Orthopoxvirus vaccinia, HFF, read-out: Vaccinia (Copenhagen) EC50
[2] = system: cowpox virus (Brighton strain); assay: microbe, parasite or virus in culture; type: cell-based; details: HFF, read-out: Cowpox (Brighton) EC50
[3] = system: vaccinia virus (Copenhagen Strain); assay: microbe, parasite or virus in culture; type: cell-based; details: for EC50: Orthopoxvirus vaccinia, HFF, read-out: VV (Copenhagen) EC50
[4] = system: cowpox virus (Brighton strain); assay: microbe, parasite or virus in culture; type: cell-based; details: HFF, read-out: CV (Brighton) EC50
HFF cells [5] = assay: cells; type: cell-based; details: Homo sapiens, 72 h, read-out: IC50, 50% inhibition of cell proliferation
vaccinia IHD strain = system: vaccinia IHD strain; parameters: species or system BALB/c mice; details: mouse, in vivo
cowpox Brighton Strain [6] = system: cowpox Brighton Strain; parameters: species or system BALB/c mice; details: mouse, in vivo; for MDD, mean day of death / Mortality % / Mortality No. dead/total no.: ip
cowpox Brighton Strain [7] = system: cowpox Brighton Strain; parameters: species or system BALB/c mice; details: mouse, in vivo
vaccinia WR strain = system: vaccinia WR strain; parameters: species or system BALB/c mice; details: mouse, in vivo
vaccinia (WR strain) = system: vaccinia (WR strain); parameters: species or system mice; Mean Lung Virus Titer: unit not given here; details: mouse, in vivo
vaccinia (HID strain) = system: vaccinia (HID strain); parameters: species or system mice; Mean Lung Virus Titer: unit not given here; details: mouse, in vivo
HSV-1 strain F = assay: microbe, parasite or virus in culture; type: cell-based, herpes simplex virus; details: Human alphaherpesvirus 1, HFF
HSV-1 TK− strain DM2.1 = assay: microbe, parasite or virus in culture; type: cell-based, herpes simplex virus; details: Human alphaherpesvirus 1, HFF
ΔcrmA (TK+) CV strain = assay: microbe, parasite or virus in culture; type: cell-based; details: Cowpox virus, HFF, read-out: EC50 CV (Δcrm lacZ) TK+
[8] = system: TK:GFP lacZ (TK−) CV strain; assay: microbe, parasite or virus in culture; type: cell-based; details: Cowpox virus, HFF, read-out: EC50 CV (TK:gpf lacZ)
WR strain of VV = assay: microbe, parasite or virus in culture; type: cell-based; details: Orthopoxvirus vaccinia, HFF, 24 h, read-out: EC50 for inhibiting VV DNA synthesis
HSV-1 strain E377 = system: HSV-1 strain E377; parameters: species or system BALB/c mice; details: mouse, in vivo
VV strain WR = system: VV strain WR; parameters: species or system BALB/c mice; details: mouse, in vivo, ip
Epstein-Barr virus = assay: microbe, parasite or virus in culture; type: cell-based; details: human gammaherpesvirus 4, read-out: EC50, inhibition of Epstein-Barr virus replication
human cytomegalovirus = type: cell-based
human herpesvirus 6 = type: cell-based; details: betaherpesvirus without TK activity
HFF cells [9] = details: human
[10] = mouse, in vivo
Human herpesvirus 8 = details: Zhu, et al. 2005; cited from earlier work
in vitro = details: human
[11] = system: CV strain delta crmA (TK+); assay: microbe, parasite or virus in culture; type: cell-based; details: Cowpox virus, Vero, read-out: CV delta crmA EC50 (TK+)
[12] = system: CV strain TK:GFP lacZ (TK−); assay: microbe, parasite or virus in culture; type: cell-based; details: Cowpox virus, Vero, read-out: CV TK:GFP lacZ EC50 (TK−)
purified VV TK = purified VV TK (Vaccinia virus, UniProt P68564)
[13] = read-out: EC50 HSV-1 (DM2.1) TK−

Cc1cn([C@H]2C[C@H](O)[C@]3(CO)C[C@H]23)c(=O)[nH]c1=O [N-MCT, North-methanocarbathymidine]
EC50 [1]: 0.73 µg/mL (≈ 2.89 µM) | EC50 [2]: 0.31 µg/mL (≈ 1.23 µM) | VV (Copenhagen) EC50 [3]: 0.55 ± 0.13 µg/mL | EC50 [3]: 0.6 µg/mL (≈ 2.38 µM) | EC50 [4]: 1.5 ± 1.2 µg/mL (≈ 5.95 µM) | IC50 (HFF cells [5]): 29 ± 5.4 µg/mL (≈ 115 µM) | Mean Day of Death (vaccinia IHD strain): 8.7 days | Mortality Number (vaccinia IHD strain): 0/15 and 3/15 | Animals that survived (vaccinia IHD strain; 5.6 mg/kg): 80% | MDD, mean day of death (vaccinia IHD strain; ip, 5.6 mg/kg): 8.7 days | Mortality % (vaccinia IHD strain; ip, 5.6 mg/kg): 20% | Mortality No. dead/total no. (vaccinia IHD strain; ip, 5.6 mg/kg): 3/15 | Mortality % (vaccinia IHD strain; ip, 16.7 mg/kg): 0% | Mortality No. dead/total no. (vaccinia IHD strain; ip, 16.7 mg/kg): 0/15 | Mortality % (vaccinia IHD strain; ip, 50 mg/kg): 0% | Mortality No. dead/total no. (vaccinia IHD strain; ip, 50 mg/kg): 0/15 | Mean Day of Death (cowpox Brighton Strain [6]): 14.0 days and 7.5 days and 13.3 days | Mortality Number (cowpox Brighton Strain [6]): 6/15 and 2/15 and 3/15 | MDD, mean day of death (cowpox Brighton Strain [6]; 5.6 mg/kg): 14.0 days | Mortality % (cowpox Brighton Strain [6]; 5.6 mg/kg): 40% | Mortality No. dead/total no. (cowpox Brighton Strain [6]; 5.6 mg/kg): 6/15 | MDD, mean day of death (cowpox Brighton Strain [6]; 16.7 mg/kg): 13.3 days | Mortality % (cowpox Brighton Strain [6]; 16.7 mg/kg): 20% | Mortality No. dead/total no. (cowpox Brighton Strain [6]; 16.7 mg/kg): 3/15 | MDD, mean day of death (cowpox Brighton Strain [6]; 50 mg/kg): 7.5 days | Mortality % (cowpox Brighton Strain [6]; 50 mg/kg): 13% | Mortality No. dead/total no. (cowpox Brighton Strain [6]; 50 mg/kg): 2/15 | Number of Survivors (cowpox Brighton Strain [7]): 9/10 and 2/10 and 1/10 | Number of Survivors (vaccinia WR strain): 0/10 | MDD (mean day of death ± SD of mice that died prior to day 21) (vaccinia (WR strain)): 8.3 ± 0.6 days and 11.2 ± 4.7 days | Mean Lung Virus Titer (vaccinia (WR strain)): 7.9 ± 0.2 and 8.2 ± 0.1 and 8.3 ± 0.2 | Survivors/Total (vaccinia (WR strain)): 7/10*** and 4/10* and 1/10 | MDD, mean day of death (vaccinia (HID strain)): >21*** day | Mean Lung Virus Titer (vaccinia (HID strain)): 7.1 ± 0.3 and 8.1 ± 0.1 and 8.3 ± 0.1 | Survivors/Total (vaccinia (HID strain)): 10/10*** | EC50 (HSV-1 strain F; read-out: EC50 HSV-1 (F) TK+): 0.07 ± 0.02 µg/mL (≈ 0.277 µM) | EC50 (HSV-1 TK− strain DM2.1; [13]): 6.3 ± 3.9 µg/mL (≈ 25 µM) | EC50 (ΔcrmA (TK+) CV strain): 2 ± 2 µg/mL (≈ 7.93 µM) | EC50 [8]: 28 ± 2.3 µg/mL (≈ 111 µM) | EC50 (WR strain of VV): 1 µg/mL (≈ 3.96 µM) | MDD, mean day of death (HSV-1 strain E377): 20 days | Mortality % (HSV-1 strain E377): 0% and 7% | Mortality No. dead/total no. (HSV-1 strain E377): 0/15 and 1/15 | MDD, mean day of death (VV strain WR; 5.6 mg/kg): 8.2 days | Mortality % (VV strain WR; 5.6 mg/kg): 80% | Mortality No. dead/total no. (VV strain WR; 5.6 mg/kg): 12/15 | MDD, mean day of death (VV strain WR; 16.7 mg/kg): 7.5 days | Mortality % (VV strain WR; 16.7 mg/kg): 13% | Mortality No. dead/total no. (VV strain WR; 16.7 mg/kg): 2/15 | Mortality % (VV strain WR; 50 mg/kg): 0% | Mortality No. dead/total no. (VV strain WR; 50 mg/kg): 0/15 | EC50 (Epstein-Barr virus): 0.45 µg/mL (≈ 1.78 µM) | Activity against human cytomegalovirus (human cytomegalovirus): inactive | Activity against human herpesvirus 6 (human herpesvirus 6): inactive | CC50 (HFF cells [9]): >100 ± 0 µg/mL | Tolerability in mice [10]: well tolerated | Sensitivity of human herpesvirus 8 to the drug (Human herpesvirus 8): sensitive | CC50 (in vitro): > 100 µg/mL

O=c1[nH]c(=O)n([C@H]2C[C@H](O)[C@@]3(CO)CC23)cc1Br (stereo partly drawn) [N-MCBrU]
EC50 [1]: 0.6 µg/mL (≈ 1.89 µM) | EC50 [2]: 11.5 µg/mL (≈ 36.3 µM) | CC50 (in vitro): > 100 µg/mL

Nc1ccn(C[C@@H](CO)OCP(=O)(O)O)c(=O)n1 [CDV, cidofovir]
VV (Copenhagen) EC50 [3]: 3.3 ± 0.3 µg/mL | EC50 [3]: 3 µg/mL (≈ 10.7 µM) | EC50 [4]: 4.4 ± 0.6 µg/mL (≈ 15.8 µM) | IC50 (HFF cells [5]): 20 ± 7 µg/mL (≈ 71.6 µM) | Mortality Number (vaccinia IHD strain): 0/15 | Mortality Percent (vaccinia IHD strain): 0% | Mortality % (vaccinia IHD strain; ip, 15 mg/kg): 0% | Mortality No. dead/total no. (vaccinia IHD strain; ip, 15 mg/kg): 0/15 | Mortality Number (cowpox Brighton Strain [6]): 0/15 | Mortality Percent (cowpox Brighton Strain [6]): 0% | Mortality % (cowpox Brighton Strain [6]; 15 mg/kg): 0% | Mortality No. dead/total no. (cowpox Brighton Strain [6]; 15 mg/kg): 0/15 | Number of Survivors (cowpox Brighton Strain [7]): 10/10 | Number of Survivors (vaccinia WR strain): 10/10 | MDD (mean day of death of mice that died prior to day 21) (vaccinia (WR strain)): 8.0 days | Mean Lung Virus Titer (vaccinia (WR strain)): 7.0 ± 0.2 | Survivors/Total (vaccinia (WR strain)): 9/10*** | MDD, mean day of death (vaccinia (HID strain)): >21*** day | Mean Lung Virus Titer (vaccinia (HID strain)): 4.7 ± 0.6 | Survivors/Total (vaccinia (HID strain)): 10/10*** | EC50 (HSV-1 strain F; read-out: EC50 HSV-1 (F) TK+): 1.5 ± 1.1 µg/mL (≈ 5.37 µM) | EC50 (HSV-1 strain F; read-out: HSV-1 F EC50 (TK+)): 1.5 ± 1.1 µg/mL (≈ 5.37 µM) | EC50 (HSV-1 TK− strain DM2.1; [13]): 1.5 ± 1.4 µg/mL (≈ 5.37 µM) | EC50 (HSV-1 TK− strain DM2.1; read-out: HSV-1 DM2.1 EC50 (TK−)): 1.5 ± 1.4 µg/mL (≈ 5.37 µM) | EC50 [11]: 16.1 ± 0.3 µg/mL (≈ 57.7 µM) | EC50 [12]: 3.3 ± 2.3 µg/mL (≈ 11.8 µM) | EC50 (ΔcrmA (TK+) CV strain): 3.5 ± 3.3 µg/mL (≈ 12.5 µM) | EC50 [8]: 4.2 ± 3.9 µg/mL (≈ 15 µM) | EC50 (WR strain of VV): 3 µg/mL (≈ 10.7 µM) | Mortality % (VV strain WR; 15 mg/kg): 0% | Mortality No. dead/total no. (VV strain WR; 15 mg/kg): 0/15 | CC50 (HFF cells [9]): >100 ± 0 µg/mL | Toxicity CC50 (HFF cells [9]): >100 ± 0 µg/mL | Vmax (purified VV TK): <0.025 µM/min/mg | CC50 (in vitro): > 100 µg/mL
